These compounds were tested against NaV1.3 (Homo sapiens, UniProt Q9NY46) (assay: VIPR optical membrane potential assay, NaV1.3 inhibition). Details: activity against NaV 1.3 channel.
Assay type: cell-based
Parameters: expressed in transfected cells; host or cells: HEK293
Description: Antagonist properties of test compounds were assessed as follows. Cells expressing the NaV of interest were placed into microtiter plates. After an incubation period, the cells were stained with fluorescent dyes sensitive to the transmembrane potential. The test compounds were added to the microtiter plate. The cells were stimulated with either a chemical or electrical means to evoke a NaV dependent membrane potential change from unblocked channels, which was detected and measured with trans-membrane potential-sensitive dyes. Antagonists were detected as a decreased membrane potential response to the stimulus.
The following is an example of how NaV1.3 inhibition activity is measured using the optical membrane potential method#2. Other subtypes are performed in an analogous mode in a cell line expressing the NaV of interest.
HEK293 cells stably expressing NaV1.3 are plated into 96-well microtiter plates. After an appropriate incubation period, the cells are stained with the voltage sensitive dyes CC2-DMPE/DiSBAC2(3) as follows.
2× CC2-DMPE=20 μM CC2-DMPE: 10 mM CC2-DMPE is vortexed with an equivalent volume of 10% pluronic, followed by vortexing in required amount of HBSS containing 10 mM HEPES. Each cell plate will require 5 mL of 2× CC2-DMPE. 50 μL of 2× CC2-DMPE is to wells containing washed cells, resulting in a 10 μM final staining concentration. The cells are stained for 30 minutes in the dark at RT.
2× DISBAC2(3) with ABSC1=6 μM DISBAC2(3) and 1 mM ABSC1: The required amount of 10 mM DISBAC2(3) is added to a 50 ml conical tube and mixed with 1 μL 10% pluronic for each mL of solution to be made and vortexed together. Then HBSS/HEPES is added to make up 2× solution. Finally, the ABSC1 is added.
The 2× DiSBAC2(3) solution can be used to solvate compound plates. Note that compound plates are made at 2× drug concentration. Wash stained plate again, leaving residual volume of 50 μL. Add 50 μL/well of the 2× DiSBAC2(3) w/ABSC1. Stain for 30 minutes in the dark at RT.
The instrument comprises a microtiter plate handler, an optical system for exciting the coumarin dye while simultaneously recording the coumarin and oxonol emissions, a waveform generator, a current- or voltage-controlled amplifier, and a device for inserting electrodes in well. Under integrated computer control, this instrument passes user-programmed electrical stimulus protocols to cells within the wells of the microfilter plate.
Insert or use electrodes into each well to be assayed.
Use the current-controlled amplifier to deliver stimulation wave pulses for 3 s. Two seconds of pre-stimulus recording are performed to obtain the un-stimulated intensities. Five seconds of post-stimulation recording are performed to examine the relaxation to the resting state.
Data are analyzed and reported as normalized ratios of background-subtracted emission intensities measured in the 460 nm and 580 nm channels. Background intensities are then subtracted from each assay channel. Background intensities are obtained by measuring the emission intensities during the same time periods from identically treated assay wells in which there are no cells. The response as a function of time is then reported as the ratios obtained using the following formula: […]
The data is further reduced by calculating the initial (Ri) and final (Rf) ratios. These are the average ratio values during part or all of the pre-stimulation period, and during sample points during the stimulation period. The response to the stimulus ? =Rf/Ri is then calculated.
Control responses are obtained by performing assays in the presence of a compound with the desired properties (positive control), such as tetracaine, and in the absence of pharmacological agents (negative control). Responses to the negative (N) and positive (P) controls are calculated as above. The compound antagonist activity A is defined as:
[formula] where R is the ratio response of the test compound.

Chain of NaV1.3 (Q9NY46 whole entry): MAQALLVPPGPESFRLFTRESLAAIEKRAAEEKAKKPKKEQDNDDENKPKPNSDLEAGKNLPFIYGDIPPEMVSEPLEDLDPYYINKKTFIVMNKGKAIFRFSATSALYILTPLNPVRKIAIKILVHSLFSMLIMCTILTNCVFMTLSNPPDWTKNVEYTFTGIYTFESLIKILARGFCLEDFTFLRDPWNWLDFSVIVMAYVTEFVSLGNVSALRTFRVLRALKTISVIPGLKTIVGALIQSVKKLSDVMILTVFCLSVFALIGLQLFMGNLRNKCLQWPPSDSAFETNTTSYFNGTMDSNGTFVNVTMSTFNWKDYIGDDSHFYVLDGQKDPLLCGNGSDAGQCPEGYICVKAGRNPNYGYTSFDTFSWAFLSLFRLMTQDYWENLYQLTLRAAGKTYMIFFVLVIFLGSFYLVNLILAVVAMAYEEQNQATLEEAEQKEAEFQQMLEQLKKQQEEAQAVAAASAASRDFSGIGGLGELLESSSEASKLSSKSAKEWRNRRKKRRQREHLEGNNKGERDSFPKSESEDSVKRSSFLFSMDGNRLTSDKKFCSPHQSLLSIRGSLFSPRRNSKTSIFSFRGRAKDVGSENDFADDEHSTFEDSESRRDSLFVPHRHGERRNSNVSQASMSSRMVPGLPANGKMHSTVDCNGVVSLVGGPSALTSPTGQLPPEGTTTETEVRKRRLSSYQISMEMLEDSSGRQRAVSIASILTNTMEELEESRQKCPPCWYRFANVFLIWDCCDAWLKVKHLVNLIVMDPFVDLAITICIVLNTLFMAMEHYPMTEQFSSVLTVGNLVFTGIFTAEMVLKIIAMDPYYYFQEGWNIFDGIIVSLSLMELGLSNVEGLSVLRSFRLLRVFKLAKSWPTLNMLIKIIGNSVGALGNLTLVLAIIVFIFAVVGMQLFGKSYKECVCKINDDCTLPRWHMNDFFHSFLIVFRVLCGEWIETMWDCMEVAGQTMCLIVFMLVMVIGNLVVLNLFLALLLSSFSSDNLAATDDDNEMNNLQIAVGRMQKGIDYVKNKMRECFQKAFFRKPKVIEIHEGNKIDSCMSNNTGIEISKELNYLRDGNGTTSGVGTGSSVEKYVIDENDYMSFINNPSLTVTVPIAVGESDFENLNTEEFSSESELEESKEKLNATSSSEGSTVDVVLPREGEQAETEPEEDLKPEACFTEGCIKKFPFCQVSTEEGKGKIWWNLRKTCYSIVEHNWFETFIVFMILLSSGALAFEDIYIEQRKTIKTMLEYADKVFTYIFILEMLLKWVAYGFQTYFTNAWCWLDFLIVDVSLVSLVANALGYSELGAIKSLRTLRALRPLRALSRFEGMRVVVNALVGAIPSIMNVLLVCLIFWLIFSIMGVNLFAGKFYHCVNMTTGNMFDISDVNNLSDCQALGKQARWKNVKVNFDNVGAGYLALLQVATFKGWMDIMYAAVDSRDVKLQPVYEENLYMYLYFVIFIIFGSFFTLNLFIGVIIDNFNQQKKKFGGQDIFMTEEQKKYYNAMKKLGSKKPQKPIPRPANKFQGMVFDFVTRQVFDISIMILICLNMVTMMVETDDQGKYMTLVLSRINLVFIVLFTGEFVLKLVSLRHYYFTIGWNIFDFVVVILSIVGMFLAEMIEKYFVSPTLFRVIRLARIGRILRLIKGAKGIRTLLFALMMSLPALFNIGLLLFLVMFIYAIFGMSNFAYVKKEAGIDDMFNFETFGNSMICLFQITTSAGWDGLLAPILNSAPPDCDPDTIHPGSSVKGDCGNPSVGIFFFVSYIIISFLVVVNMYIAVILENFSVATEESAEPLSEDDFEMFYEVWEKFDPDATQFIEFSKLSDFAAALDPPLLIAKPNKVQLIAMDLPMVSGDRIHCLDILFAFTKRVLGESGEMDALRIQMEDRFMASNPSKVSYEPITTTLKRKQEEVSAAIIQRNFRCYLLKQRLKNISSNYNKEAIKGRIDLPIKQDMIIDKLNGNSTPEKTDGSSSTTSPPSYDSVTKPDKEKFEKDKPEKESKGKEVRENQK

SMILES	IC50
O=C(c1ccc(F)cc1)N1Cc2ccc(S(=O)(=O)Nc3nccs3)cc2C1 [Compound 3]	2000 to 5000 nM
O=C(COc1ccc(F)c(Cl)c1)N1Cc2ccc(S(=O)(=O)Nc3ncns3)cc2C1 [Compound 200]	< 2000 nM
O=C(COc1ccc(F)c(Cl)c1)N1CCc2cc(S(=O)(=O)Nc3ncns3)ccc21 [Compound 13]	< 2000 nM
CC1CCCN(CC(=O)N2CCc3cc(S(=O)(=O)Nc4nccs4)ccc32)C1 (stereo not shown) [Compound 75]	> 5000 nM
O=C(COc1ccc(OC(F)(F)F)cc1)N1Cc2ccc(S(=O)(=O)Nc3nccs3)cc2C1 [Compound 84]	< 2000 nM
O=C(c1ccc(F)cc1F)N1CCc2ccc(S(=O)(=O)Nc3nccs3)cc2C1 [Compound 73]	> 5000 nM
CC(Oc1ccc(OC(F)(F)F)cc1)C(=O)N1Cc2ccc(S(=O)(=O)Nc3nccs3)cc2C1 (stereo not shown) [Compound 186]	< 2000 nM
O=C(c1cccc(Cl)c1)n1ccc2cc(S(=O)(=O)Nc3nccs3)ccc21 [Compound 86]	< 2000 nM
O=C(c1ccccc1Cl)n1ccc2cc(S(=O)(=O)Nc3nccs3)ccc21 [Compound 103]	2000 to 5000 nM
O=C(COc1ccnc2c(C(F)(F)F)cccc12)N1CCc2ccc(S(=O)(=O)Nc3nncs3)cc2C1 [Compound 45]	> 5000 nM
COc1ccc(CC(=O)N2Cc3ccc(S(=O)(=O)Nc4nccs4)cc3C2)cc1 [Compound 193]	2000 to 5000 nM
Cc1cccc(CC(=O)N2CCc3cc(S(=O)(=O)Nc4nccs4)ccc32)c1 [Compound 43]	< 2000 nM
CC(Oc1ccccc1Cl)C(=O)N1CCc2cc(S(=O)(=O)Nc3ncns3)ccc21 (stereo not shown) [Compound 185]	< 2000 nM
C[C@H](C(=O)N1Cc2ccc(S(=O)(=O)Nc3ncns3)cc2C1)n1ccc2c(F)cccc21 [Compound 94]	< 2000 nM
C[C@H](C(=O)N1Cc2ccc(S(=O)(=O)Nc3ncns3)cc2C1)n1ccc2ccccc21 [Compound 207]	< 2000 nM
Cc1ccnc(NS(=O)(=O)c2ccc3c(c2)CCN3C(=O)CCCOc2ccc(Cl)cc2Cl)n1 [Compound 208]	> 5000 nM
O=C(COc1cccc(Cl)c1)N1Cc2ccc(S(=O)(=O)Nc3nccs3)cc2C1 [Compound 11]	< 2000 nM
O=C(CN1CCCc2cc(Cl)ccc21)N1CCc2cc(S(=O)(=O)Nc3ncns3)ccc21 [Compound 205]	< 2000 nM
O=C(COc1ccccc1)N1CCCc2cc(S(=O)(=O)Nc3ncns3)ccc21 [Compound 72]	> 5000 nM
O=C(CN1CCC(F)(F)C1)N1CCCc2cc(S(=O)(=O)Nc3nccs3)ccc21 [Compound 169]	> 5000 nM

SMILES	IC50
O=C(CNc1ccccc1F)N1CCc2cc(S(=O)(=O)Nc3nccs3)ccc21 [Compound 144]	< 2000 nM
Cc1ccccc1CC(=O)N1CCc2cc(S(=O)(=O)Nc3nccs3)ccc21 [Compound 107]	< 2000 nM
C[C@H](C(=O)N1CCc2cc(S(=O)(=O)Nc3ncns3)ccc21)n1ccc2ccccc21 [Compound 202]	< 2000 nM
O=C(COc1ccc(OC(F)(F)F)cc1)N1CCc2ccc(S(=O)(=O)Nc3nccs3)cc2C1 [Compound 52]	> 5000 nM
Cc1ccc(OCC(=O)N2CCc3cc(S(=O)(=O)Nc4nccs4)ccc32)cc1C [Compound 79]	< 2000 nM
O=C(c1ccc(F)cc1)N1CCc2ccc(S(=O)(=O)Nc3nccs3)cc2C1 [Compound 119]	> 5000 nM
O=C(COc1ccc(OC(F)(F)F)cc1)N1CCc2cc(S(=O)(=O)Nc3ncns3)ccc21 [Compound 167]	< 2000 nM
C[C@H](C(=O)N1Cc2ccc(S(=O)(=O)Nc3ccc(Cl)nn3)cc2C1)n1ccc2c(F)cccc21 [Compound 58]	> 5000 nM
COc1ccc(OC(=O)N2CCc3cc(S(=O)(=O)Nc4nccs4)ccc32)cc1 [Compound 80]	> 5000 nM
O=C(CCCOc1ccc(Cl)cc1Cl)N1CCCc2cc(S(=O)(=O)Nc3nccs3)ccc21 [Compound 180]	< 2000 nM
Cc1ccc(OCC(=O)N2CCc3cc(S(=O)(=O)Nc4nccs4)ccc32)c(C)c1 [Compound 60]	< 2000 nM
O=C(COc1ccccc1Cl)N1CCc2ccc(S(=O)(=O)Nc3nccs3)cc2C1 [Compound 149]	< 2000 nM
O=C(CN1CCCc2cc(Cl)ccc21)N1Cc2ccc(S(=O)(=O)Nc3ccncn3)cc2C1 [Compound 37]	2000 to 5000 nM
CC1CN(CC(=O)N2CCc3cc(S(=O)(=O)Nc4nccs4)ccc32)CC(C)O1 (stereo not shown) [Compound 85]	> 5000 nM
O=C(COc1ccnc2c(C(F)(F)F)cccc12)N1CCc2cc(S(=O)(=O)Nc3nccs3)ccc21 [Compound 194]	< 2000 nM
Cc1ccc2c(c1)CCCN2CC(=O)N1CCc2cc(S(=O)(=O)Nc3nccs3)ccc21 [Compound 64]	2000 to 5000 nM
O=C(CN1CCC(F)(F)CC1)N1CCc2cc(S(=O)(=O)Nc3nccs3)ccc21 [Compound 153]	> 5000 nM
O=C(COc1ccccc1Cl)N1CCc2cc(S(=O)(=O)Nc3nccs3)ccc21 [Compound 2]	< 2000 nM
Cc1ccc(OCC(=O)N2CCc3ccc(S(=O)(=O)Nc4nccs4)cc3C2)c(C)c1 [Compound 16]	< 2000 nM
C[C@@H](C(=O)N1CCc2cc(S(=O)(=O)Nc3ncns3)ccc21)n1ccc2ccccc21 [Compound 130]	> 5000 nM

SMILES	IC50
O=C(c1cc(F)ccc1F)N1CCCc2cc(S(=O)(=O)Nc3nccs3)ccc21 [Compound 70]	> 5000 nM
COc1cc(C(=O)N2CCc3cc(S(=O)(=O)Nc4nccs4)ccc32)ccc1C [Compound 178]	2000 to 5000 nM
O=C(CCn1ccc2cc(Cl)ccc21)N1Cc2ccc(S(=O)(=O)Nc3nccs3)cc2C1 [Compound 177]	< 2000 nM
O=C(CNc1cccc(F)c1)N1CCc2cc(S(=O)(=O)Nc3nccs3)ccc21 [Compound 198]	< 2000 nM
O=C(CNCc1ccncc1)N1CCc2cc(S(=O)(=O)Nc3nccs3)ccc21 [Compound 171]	> 5000 nM
O=C(CCn1ccc2cc(Cl)ccc21)N1CCc2cc(S(=O)(=O)Nc3ncns3)ccc21 [Compound 172]	< 2000 nM
O=C(COc1ccc(F)c(Cl)c1)N1CCc2cc(S(=O)(=O)Nc3nccs3)ccc21 [Compound 30]	< 2000 nM
O=C(c1cc(Cl)ccc1Cl)n1ccc2cc(S(=O)(=O)Nc3nccs3)ccc21 [Compound 162]	2000 to 5000 nM
O=C(ON1Cc2ccc(S(=O)(=O)Nc3nccs3)cc2C1)c1ccc(Cl)cc1 [Compound 102]	< 2000 nM
C[C@@H](C(=O)N1Cc2ccc(S(=O)(=O)Nc3ncns3)cc2C1)n1ccc2c(F)cccc21 [Compound 124]	< 2000 nM
O=C(Cc1c(Cl)cccc1Cl)N1CCc2cc(S(=O)(=O)Nc3nccs3)ccc21 [Compound 136]	< 2000 nM
O=C(CN1CCCc2ccccc21)N1CCCc2cc(S(=O)(=O)Nc3nccs3)ccc21 [Compound 101]	> 5000 nM
O=C(CNc1cc(F)ccc1F)N1CCc2cc(S(=O)(=O)Nc3nccs3)ccc21 [Compound 61]	< 2000 nM
CC(Oc1ccccc1Cl)C(=O)n1ccc2cc(S(=O)(=O)Nc3nccs3)ccc21 (stereo not shown) [Compound 160]	2000 to 5000 nM
O=C(CCCOc1ccc(Cl)c(Cl)c1)N1Cc2ccc(S(=O)(=O)Nc3ncns3)cc2C1 [Compound 32]	< 2000 nM
O=C(CCCOc1ccc(Cl)cc1Cl)N1CCc2cc(S(=O)(=O)Nc3ncns3)ccc21 [Compound 33]	< 2000 nM
O=C(c1ccc(C(F)(F)F)cc1)N1CCc2cc(S(=O)(=O)Nc3nccs3)ccc21 [Compound 166]	< 2000 nM
CC(Oc1ccccc1)C(=O)N1CCCc2cc(S(=O)(=O)Nc3nccs3)ccc21 (stereo not shown) [Compound 39]	> 5000 nM

From US7786137B2, “Bicyclic derivatives as modulators of ion channels” (Vertex Pharmaceuticals Incorporated, priority 2005, dated 2010)
